Measured values reported in ChEMBL document CHEMBL3414563, “Rational design of partial agonists for the muscarinic m1 acetylcholine receptor” (J Med Chem, 2015).
Active and inactive are the calls of the source. The calls are words filed in the database; no cut-off is given here.

Assays:
[1] = target: T1, Muscarinic acetylcholine receptor M1 (Homo sapiens, UniProt P11229)
T1 sequence (P11229 whole entry): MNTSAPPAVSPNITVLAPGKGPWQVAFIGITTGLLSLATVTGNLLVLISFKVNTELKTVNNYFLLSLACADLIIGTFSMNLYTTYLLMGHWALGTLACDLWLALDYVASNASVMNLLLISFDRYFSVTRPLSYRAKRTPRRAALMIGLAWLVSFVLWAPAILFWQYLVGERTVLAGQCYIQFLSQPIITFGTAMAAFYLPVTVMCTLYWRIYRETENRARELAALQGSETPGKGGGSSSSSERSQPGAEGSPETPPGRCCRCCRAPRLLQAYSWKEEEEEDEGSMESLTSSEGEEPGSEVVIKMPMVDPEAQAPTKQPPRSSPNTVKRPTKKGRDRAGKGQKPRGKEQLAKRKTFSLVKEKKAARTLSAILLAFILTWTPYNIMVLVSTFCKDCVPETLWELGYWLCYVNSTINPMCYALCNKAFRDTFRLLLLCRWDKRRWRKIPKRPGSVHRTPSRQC
Description: Partial agonist activity at human muscarinic M1 acetylcholine receptor expressed in CHO cells assessed as increase in IP1 accumulation incubated for 30 mins by FRET based HTRF assay

[2] = target: T2, Muscarinic acetylcholine receptor M1 (Homo sapiens) (UniProt P11229); experiment: Partial agonist activity at human muscarinic M1 acetylcholine receptor expressed in CHO cells assessed as increase in IP1 accumulation at 10 uM incubated for 30 mins in presence of 1 uM Gq protein inhibitor UBO-QIC by FRET based HTRF assay; type: functional, cell-based
T2 sequence (whole entry): T1 sequence (P11229 whole entry)

[3] = target: T1, Muscarinic acetylcholine receptor M1; experiment: biochemical
[4] = target: T2, Muscarinic acetylcholine receptor M1 (Homo sapiens); experiment: Partial agonist activity at human muscarinic M1 acetylcholine receptor expressed in CHO cells assessed as increase in IP1 accumulation at 10 uM incubated for 30 mins by FRET based HTRF assay relative to 100 uM acetylcholine; type: functional, cell-based
[5] = target: T2, Muscarinic acetylcholine receptor M1 (Homo sapiens); experiment: Displacement of [3H]NMS from human muscarinic M1 acetylcholine receptor expressed in CHO cell membranes at 1 uM by radioligand binding assay
[6] = target: T2, Muscarinic acetylcholine receptor M1 (Homo sapiens); experiment: Partial agonist activity at human muscarinic M1 acetylcholine receptor expressed in CHO cells assessed as increase in IP1 accumulation at 10 uM incubated for 30 mins by FRET based HTRF assay; type: functional, cell-based
[7] = target: T2, Muscarinic acetylcholine receptor M1 (Homo sapiens); experiment: Agonist activity at human muscarinic M1 acetylcholine receptor expressed in CHO cells assessed as increase in IP1 accumulation at 1 uM incubated for 30 mins by FRET based HTRF assay; type: functional, cell-based
[8] = target: T2, Muscarinic acetylcholine receptor M1 (Homo sapiens); experiment: Partial agonist activity at human muscarinic M1 acetylcholine receptor expressed in CHO cells assessed as increase in IP1 accumulation at 10 uM incubated for 30 mins in presence of 100 ng/ml Gi protein inhibitor PTX by FRET based HTRF assay; type: functional, cell-based
[9] = target: T2, Muscarinic acetylcholine receptor M1 (Homo sapiens); experiment: Partial agonist activity at human muscarinic M1 acetylcholine receptor expressed in CHO cells assessed as increase in IP1 accumulation at 10 uM incubated for 30 mins by FRET based HTRF assay in presence of 1 uM atropine; type: functional, cell-based
[10] = target: T2, Muscarinic acetylcholine receptor M1 (Homo sapiens); experiment: Modulator activity at human muscarinic M1 acetylcholine receptor expressed in CHO cell membranes assessed as induction of left shift of acetylcholine-induced inhibition of [3H]NMS binding by radioligand binding assay
[11] = target: T2, Muscarinic acetylcholine receptor M1 (Homo sapiens); experiment: Allosteric inhibition of [3H]NMS dissociation from human muscarinic M1 acetylcholine receptor expressed in CHO cell membranes by radioligand binding assay
[12] = target: T2, Muscarinic acetylcholine receptor M1 (Homo sapiens); experiment: Displacement of [3H]NMS from human muscarinic M1 acetylcholine receptor expressed in CHO cell membranes by radioligand binding assay
[13] = target: T2, Muscarinic acetylcholine receptor M1 (Homo sapiens); experiment: Allosteric inhibition of [3H]NMS dissociation rate constant k_1 from human muscarinic M1 acetylcholine receptor expressed in CHO cell membranes by radioligand binding assay; details: concentration not given here
[14] = target: T2, Muscarinic acetylcholine receptor M1 (Homo sapiens); experiment: Modulator activity at human muscarinic M1 acetylcholine receptor expressed in CHO cell membranes assessed as reduction in pIC50 for acetylcholine-induced inhibition of [3H]NMS binding by radioligand binding assay
[15] = target: T2, Muscarinic acetylcholine receptor M1 (Homo sapiens); experiment: Allosteric inhibition of [3H]NMS dissociation from human muscarinic M1 acetylcholine receptor expressed in CHO cell membranes assessed as […] in half life of dissociation by radioligand binding assay
[16] = target: T2, Muscarinic acetylcholine receptor M1 (Homo sapiens); experiment: Allosteric inhibition of [3H]NMS dissociation from human muscarinic M1 acetylcholine receptor expressed in CHO cell membranes assessed as half life of dissociation by radioligand binding assay
[17] = target: T2, Muscarinic acetylcholine receptor M1 (Homo sapiens); experiment: Partial agonist activity at human muscarinic M1 acetylcholine receptor expressed in CHO cells assessed as increase in IP1 accumulation at 1 uM incubated for 30 mins by FRET based HTRF assay relative to 100 uM acetylcholine; type: functional, cell-based
[18] = target: T2, Muscarinic acetylcholine receptor M1 (Homo sapiens); details: CHO
Description: Displacement of [3H]NMS from human muscarinic M1 acetylcholine receptor expressed in CHO cell membranes assessed as equilibrium dissociation constant of dynamic ligand for inactive receptor binding pose by radioligand binding assay

[19] = target: T2, Muscarinic acetylcholine receptor M1 (Homo sapiens); details: CHO; remark: listed apart in the source
Description: Displacement of [3H]NMS from human muscarinic M1 acetylcholine receptor expressed in CHO cell membranes assessed as equilibrium dissociation constant of dynamic ligand for active receptor binding pose by radioligand binding assay

[20] = target: T2, Muscarinic acetylcholine receptor M1 (Homo sapiens); experiment: Partial agonist activity at human muscarinic M1 acetylcholine receptor expressed in CHO cells assessed as increase in IP1 accumulation at 0.3 uM incubated for 30 mins by FRET based HTRF assay relative to 100 uM acetylcholine; type: functional, cell-based

Compound	EC50 [1] [nM]	Activity [2]	Kd [3] [nM]	Activity [6]	Activity [7]	further results
C[N+](C)(CC#CCOC1=NOCC1)CCCCCCNC(=O)c1cn(Cc2ccccc2)c2cc(Cl)c(F)cc2c1=O	302	inactive	851			
CC[C@@H]1SC2(CCNCC2)NC1=O						Emax [4]: 12%
O=C(NCCCCCCBr)c1cn(Cc2ccccc2)c2cc(Br)ccc2c1=O				inactive	inactive	inhibition [5]: Active
C[N+](C)(CC#CCOC1=NOCC1)CCCCCCNC(=O)c1cn(Cc2ccccc2)c2ccc(F)cc2c1=O	58.9	inactive	151			
CC[C@@H]1SC2(CCNCC2)N(CCCCCCCCOc2ccc3cc(Cn4cc(C(=O)O)c(=O)c5cccc(F)c54)ccc3c2)C1=O	60.3		166			Activity [8]: Active; Emax [4]: 61%
CC[C@@H]1SC2(CCNCC2)N(CCCOc2ccc3cc(Cn4cc(C(=O)O)c(=O)c5cccc(F)c54)ccc3c2)C1=O						Activity [8]: Active; Emax [4]: 55%; Activity [9]: inactive
O=C(NCCCCBr)c1cn(Cc2ccccc2)c2c(F)cccc2c1=O				inactive	inactive	inhibition [10]: inactive; pEC0.5 [11]: 5.9; Imax [12]: 3 µM; inhibition [13]: 35%; inhibition [14]: Active
C[N+](C)(CC#CCOC1=NOCC1)CCCCCCNC(=O)c1cn(Cc2ccccc2)c2cc(Br)ccc2c1=O	15.5	inactive	74.1			
CCCCCCCCN1CCC(n2c(=O)[nH]c3ccccc32)CC1	537					Activity [8]: Active; fold change (FC) [15]: 3; pEC0.5 [11]: 5.94; T1/2 [16]: 8.9 min; inhibition [13]: 36%
C[N+](C)(CC#CCOC1=NOCC1)CCCCNC(=O)c1cn(Cc2ccccc2)c2cc(Br)ccc2c1=O	63.1	inactive	141			
CCCCCCCCOc1ccc2cc(Cn3cc(C(=O)O)c(=O)c4cccc(F)c43)ccc2c1						Activity [8]: Active; Emax [17]: 1%
O=C(NCCCCBr)c1cn(Cc2ccccc2)c2cc(Br)ccc2c1=O				inactive	inactive	
C[N+](C)(C)CC#CCOC1=NOCC1	2.04		2140			
O=C(NCCCCBr)c1cn(Cc2ccccc2)c2cc(Cl)c(F)cc2c1=O				inactive	inactive	
C[N+](C)(CC#CCOC1=NOCC1)CCCCNC(=O)c1cn(Cc2ccccc2)c2cc(Cl)c(F)cc2c1=O	32.4	inactive	72.4			
O=C(NCCCCCCBr)c1cn(Cc2ccccc2)c2cc(Cl)c(F)cc2c1=O				inactive	inactive	inhibition [5]: Active
C[N+](C)(CC#CCOC1=NOCC1)CCCCCCNC(=O)c1cn(Cc2ccccc2)c2c(F)cccc2c1=O	178	inactive	490			inhibition [10]: inactive; pKb [18]: 6.3; pKA [19]: 6.98; pEC0.5 [11]: 6.1; inhibition [13]: 15%; inhibition [14]: Active
O=C(NCCCCCCBr)c1cn(Cc2ccccc2)c2c(F)cccc2c1=O				inactive	inactive	inhibition [10]: inactive; pEC0.5 [11]: 6.15; Imax [12]: 10 µM; inhibition [13]: 47%; inhibition [14]: Active
C[N+](C)(CC#CCOC1=NOCC1)CCCCNC(=O)c1cn(Cc2ccccc2)c2c(F)cccc2c1=O	57.5	inactive	151			inhibition [10]: inactive; pKb [18]: 6.92; pKA [19]: 6.64; pEC0.5 [11]: 6.04; inhibition [13]: 18%; inhibition [14]: Active
COc1ccc(Cn2cc(C(=O)O)c(=O)c3ccccc32)cc1				Active	inactive	
COc1ccc2cc(Cn3cc(C(=O)O)c(=O)c4cccc(F)c43)ccc2c1						Emax [20]: 1%; Activity [8]: Active
